The values below come from US8883826B2, “Alkynyl derivatives as modulators of metabotropic glutamate receptors” (Addex Pharma SA, priority 2004, dated 2014).

pIC50: −log10 of the molar value.

T1 sequence (P31424 21-1203): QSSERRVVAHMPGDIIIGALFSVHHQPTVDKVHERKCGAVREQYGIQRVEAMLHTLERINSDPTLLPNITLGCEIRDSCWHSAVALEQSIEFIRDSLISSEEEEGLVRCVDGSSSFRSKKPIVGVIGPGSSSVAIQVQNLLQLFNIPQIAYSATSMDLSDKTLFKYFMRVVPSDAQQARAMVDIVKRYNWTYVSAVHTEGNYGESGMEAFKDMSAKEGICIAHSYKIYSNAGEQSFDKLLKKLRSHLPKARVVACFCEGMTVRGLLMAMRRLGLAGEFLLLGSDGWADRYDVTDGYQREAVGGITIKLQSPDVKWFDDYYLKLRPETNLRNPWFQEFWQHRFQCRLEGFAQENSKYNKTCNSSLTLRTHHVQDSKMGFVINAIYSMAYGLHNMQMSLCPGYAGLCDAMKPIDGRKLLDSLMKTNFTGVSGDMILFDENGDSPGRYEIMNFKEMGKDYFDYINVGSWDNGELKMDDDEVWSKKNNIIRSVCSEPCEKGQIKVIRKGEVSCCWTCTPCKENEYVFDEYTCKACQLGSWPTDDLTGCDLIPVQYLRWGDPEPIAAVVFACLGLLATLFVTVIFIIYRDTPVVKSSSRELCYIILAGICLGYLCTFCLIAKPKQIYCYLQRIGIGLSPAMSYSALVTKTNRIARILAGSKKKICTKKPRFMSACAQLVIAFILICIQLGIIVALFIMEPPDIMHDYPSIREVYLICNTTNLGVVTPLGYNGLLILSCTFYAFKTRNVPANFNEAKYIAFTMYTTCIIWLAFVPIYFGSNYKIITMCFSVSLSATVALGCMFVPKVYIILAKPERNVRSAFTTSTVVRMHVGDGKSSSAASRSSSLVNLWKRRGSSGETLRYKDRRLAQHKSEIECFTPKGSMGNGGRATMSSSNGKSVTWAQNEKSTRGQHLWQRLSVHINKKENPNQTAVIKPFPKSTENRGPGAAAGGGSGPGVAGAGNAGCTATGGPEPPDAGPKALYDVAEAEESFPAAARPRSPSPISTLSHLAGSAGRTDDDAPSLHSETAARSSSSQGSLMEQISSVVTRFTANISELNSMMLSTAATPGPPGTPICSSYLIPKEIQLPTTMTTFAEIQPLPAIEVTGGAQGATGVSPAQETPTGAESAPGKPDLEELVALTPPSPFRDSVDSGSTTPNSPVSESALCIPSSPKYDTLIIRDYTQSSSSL

This assay addresses T1, mGluR5 (Rattus norvegicus, UniProt P31424).
T1 construct: tissue Charles River Laboratories; host or cells: rat brain cortex membranes (Sprague-Dawley)
The assay is described as follows: mGluR5 binding assay ([3H]-MPEP radioligand competition). The following applies: competition with 3 nM [3H]-MPEP, rat brain cortical membranes, 1 h at 4 °C; mean of at least three independent experiments in duplicate. The method, boiled down:
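Rat cortical membranes (50 μg) were incubated 1 h at 4 °C with 3 nM [3H]-MPEP and compound (0.003 nM-30 μM, 8 points) in HEPES buffer pH 7.4 with Mg2+, Ca2+ and NaCl. 30 μM MPEP defined non-specific binding, and bound label was counted after filtration. IC50 came from non-linear regression, as the mean of ≥3 experiments run in duplicate.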
In general terms: Displacement assays read how much labelled ligand stays bound in the presence of the test substance.
One may read the pIC50 as −log10 of the IC50, conventionally taken in molar units. A higher pIC50 goes with a low IC50. The molecule `O=[N+]([O-])c1cccc2nn(CCC#Cc3cccc(CF)n3)nc12` [Example 161, 2-(4-(6-(Fluoromethyl)pyridin-2-yl)but-3-ynyl)-4-nitro-2H-benzo[d][1,2,3]triazole] showed a pIC50 of over 5.00.

`Cc1cccc2nn(CCC#Cc3ccccn3)nc12` [Example 163, 4-Methyl-2-(4-(pyridin-2-yl)but-3-ynyl)-2H-benzo[d][1,2,3]triazole] showed a pIC50 of over 7.30. Under `Cc1cccc2nn(CCC#Cc3cccc(CF)n3)nc12` [Example 164, 2-(4-(6-(Fluoromethyl)pyridin-2-yl)but-3-ynyl)-4-methyl-2H-benzo[d][1,2,3]triazole] stands over 7.30; under `Cc1ccc2nn(CCC#Cc3cccc(CF)n3)nc2c1` [Example 165, 2-(4-(6-(Fluoromethyl)pyridin-2-yl)but-3-ynyl)-5-methyl-2H-benzo[d][1,2,3]triazole], over 7.30; under `Cc1ccc2nn(CCC#Cc3ccccn3)nc2c1` [Example 166, 5-Methyl-2-(4-(pyridin-2-yl)but-3-ynyl)-2H-benzo[d][1,2,3]triazole], over 6.30. As for `Fc1ccc(-c2ccnn2CCC#Cc2ccccn2)cc1` [Example 171, 2-(4-(5-(4-Fluorophenyl)-1H-pyrazol-1-yl)but-1-ynyl)pyridine], the figure is over 5.00. Under `FC(CC#Cc1ccccn1)c1cnc2ccccc2n1` (centres unmarked) [Example 172, 2-(1-Fluoro-4-(pyridin-2-yl)but-3-ynyl)quinoxaline] stands over 5.00. Molecule `O=CNc1cccc(C#CCCn2nc3ccccc3n2)n1` [Example 175, N-(6-(4-(2H-Benzo[d][1,2,3]triazol-2-yl)but-1-ynyl)pyridin-2-yl)formamide] showed a pIC50 of over 5.00. In turn, `Cc1nc(C#CCCn2nc3cccc(Cl)c3n2)cn1C` [Example 176, 4-Chloro-2-(4-(1,2-dimethyl-1H-imidazol-4-yl)but-3-ynyl)-2H-benzo[d][1,2,3]triazole] showed a pIC50 of over 5.00.

Molecule `Cc1ccc2nn(CCC#Cc3ccccn3)nc2c1C` [Example 177, 4,5-Dimethyl-2-(4-(pyridin-2-yl)but-3-ynyl)-2H-benzo[d][1,2,3]triazole] showed a pIC50 of over 5.00. `Cc1ccc2nn(CCC#Cc3cccc(CF)n3)nc2c1C` [Example 178, 2-(4-(6-(Fluoromethyl)pyridin-2-yl)but-3-ynyl)-4,5-dimethyl-2H-benzo[d][1,2,3]triazole] gave a pIC50 of over 5.00.

For `Clc1cccc(C#CCCn2nc3ccccc3n2)n1` [Example 180, 2-(4-(6-Chloropyridin-2-yl)but-3-ynyl)-2H-benzo[d][1,2,3]triazole], the pIC50 is over 5.00. Under `Cc1nc2ccccc2nc1CCC#Cc1cccc(CF)n1` [Example 181, 2-(4-(6-(Fluoromethyl)pyridin-2-yl)but-3-ynyl)-3-methylquinoxaline] stands over 5.00; under `CC(F)c1cccc(C#CCCn2nc3ccccc3n2)n1` (centres unmarked) [Example 182, 2-(4-(6-(1-Fluoroethyl)pyridin-2-yl)but-3-ynyl)-2H-benzo[d][1,2,3]triazole], over 5.00. For `O=C(NCCC#Cc1cccc(CF)n1)c1c(Cl)cccc1Cl` [Example 189, 2,6-Dichloro-N-(4-(6-(fluoromethyl)pyridin-2-yl)but-3-ynyl)benzamide], the pIC50 is over 5.00. Under `Cn1c(CCC#Cc2cccc(CF)n2)nc2cccc(Cl)c21` [Example 191, 7-Chloro-2-(4-(6-(fluoromethyl)pyridin-2-yl)but-3-ynyl)-1-methyl-1H-benzo[d]imidazole] stands over 5.00; under `Cn1c(CCC#Cc2ccccn2)nc2cccc(Cl)c21` [Example 192, 7-Chloro-1-methyl-2-(4-(pyridin-2-yl)but-3-ynyl)-1H-benzo[d]imidazole], over 6.30. In turn, `CC(C)n1c(CCC#Cc2ccccn2)nc2ccccc21` [Example 194, 1-Isopropyl-2-(4-(pyridin-2-yl)but-3-ynyl)-1H-benzo[d]imidazole] showed a pIC50 of over 5.00. As to `Cn1c(CCC#Cc2ccccn2)nc2cc(F)ccc21` [Example 197, 5-Fluoro-1-methyl-2-(4-(pyridin-2-yl)but-3-ynyl)-1H-benzo[d]imidazole], the pIC50 is over 5.00. `O=c1ccccn1CCC#Cc1ccccn1` [Example 198, 1-(4-(Pyridin-2-yl)but-3-ynyl)pyridin-2(1H)-one] showed a pIC50 of over 5.00. Take `CN(CCC#Cc1ccccn1)C(=O)c1cccc(F)c1` [Example 200, 3-Fluoro-N-methyl-N-(4-(pyridin-2-yl)but-3-ynyl)benzamide]: the pIC50 is over 5.00. As for `CN(CCC#Cc1ccccn1)C(=O)c1ccccc1C(F)(F)F` [Example 202, N-Methyl-N-(4-(pyridin-2-yl)but-3-ynyl)-2-(trifluoromethyl)benzamide], the figure is over 5.00; as for `CN(CCC#Cc1ccccn1)C(=O)c1ccccc1Cl` [Example 204, 2-Chloro-N-methyl-N-(4-(pyridin-2-yl)but-3-ynyl)benzamide], over 5.00. Under `CN(CCC#Cc1ccccn1)C(=O)c1cccc(Cl)c1` [Example 205, 3-Chloro-N-methyl-N-(4-(pyridin-2-yl)but-3-ynyl)benzamide] stands over 5.00; under `CN(CCC#Cc1ccccn1)S(=O)(=O)c1ccc(F)cc1` [Example 206, 4-Fluoro-N-methyl-N-(4-(pyridin-2-yl)but-3-ynyl)benzenesulfonamide], over 5.00. `CN(CCC#Cc1ccccn1)S(=O)(=O)c1ccccc1Cl` [Example 207, 2-Chloro-N-methyl-N-(4-(pyridin-2-yl)but-3-ynyl)benzenesulfonamide] had a pIC50 of over 5.00. Under `CN(CCC#Cc1cccc(CF)n1)C(=O)c1ccccc1Cl` [Example 208, 2-Chloro-N-(4-(6-(fluoromethyl)pyridin-2-yl)but-3-ynyl)-N-methylbenzamide] stands over 6.30. Under `CN(CCC#Cc1cccc(CF)n1)S(=O)(=O)c1ccccc1Cl` [Example 209, 2-Chloro-N-(4-(6-(fluoromethyl)pyridin-2-yl)but-3-ynyl)-N-methylbenzene sulfonamide] stands over 7.30; under `CN(CCC#Cc1ccccn1)C(=O)c1ccccc1` [Example 211, N-Methyl-N-(4-(pyridin-2-yl)but-3-ynyl)benzamide], over 5.00. Under `Cc1ccccc1C(=O)N(C)CCC#Cc1ccccn1` [Example 212, N,2-Dimethyl-N-(4-(pyridin-2-yl)but-3-ynyl)benzamide] stands over 5.00; under `CN(CCC#Cc1ccccn1)C(=O)c1ccccc1F` [Example 213, 2-Fluoro-N-methyl-N-(4-(pyridin-2-yl)but-3-ynyl)benzamide], over 5.00; under `Cc1cccc(C(=O)N(C)CCC#Cc2ccccn2)c1` [Example 215, N,3-Dimethyl-N-(4-(pyridin-2-yl)but-3-ynyl)benzamide], over 5.00.

On to `COc1ccccc1C(=O)N(C)CCC#Cc1ccccn1` [Example 216, 2-Methoxy-N-methyl-N-(4-(pyridin-2-yl)but-3-ynyl)benzamide], for which the pIC50 is over 5.00. As to `CN(CCC#Cc1ccccn1)C(=O)c1cccc(F)c1F` [Example 217, 2,3-Difluoro-N-methyl-N-(4-(pyridin-2-yl)but-3-ynyl)benzamide], the pIC50 is over 5.00. Molecule `CN(CCC#Cc1ccccn1)C(=O)c1c(Cl)cccc1Cl` [Example 218, 2,6-Dichloro-N-methyl-N-(4-(pyridin-2-yl)but-3-ynyl)benzamide] gave a pIC50 of over 6.30.
